Assay results: patent US9775844B2, “Heterocyclic compounds and uses thereof” (Infinity Pharmaceuticals, Inc., priority 2014, dated 2017)

Tests used:
[1] = target: PI3K α (Homo sapiens (Human), UniProt P42336); assay: PI3-Kinase Promega ADP-Glo Max assay; type: biochemical
[2] = target: PI3K β (Homo sapiens (Human), UniProt P42338); assay: PI3-Kinase Promega ADP-Glo Max assay; type: biochemical
[3] = target: PI3K γ (Homo sapiens (Human), UniProt P48736); assay: PI3-Kinase Promega ADP-Glo Max assay; type: biochemical
[4] = target: PI3K δ (Homo sapiens (Human), UniProt O00329); assay: PI3-Kinase Promega ADP-Glo Max assay; type: biochemical
[5] = target: PI3K-δ in RAJI cells (Homo sapiens (Human), UniProt O00329); assay: RAJI p110 δ assay (PI3K-δ selective cellular assay, phospho-AKT); type: cell-based; settings: phospho-AKT; read-out: RAJI p110 δ assay IC50
Chain of PI3K-δ in RAJI cells (O00329 whole entry): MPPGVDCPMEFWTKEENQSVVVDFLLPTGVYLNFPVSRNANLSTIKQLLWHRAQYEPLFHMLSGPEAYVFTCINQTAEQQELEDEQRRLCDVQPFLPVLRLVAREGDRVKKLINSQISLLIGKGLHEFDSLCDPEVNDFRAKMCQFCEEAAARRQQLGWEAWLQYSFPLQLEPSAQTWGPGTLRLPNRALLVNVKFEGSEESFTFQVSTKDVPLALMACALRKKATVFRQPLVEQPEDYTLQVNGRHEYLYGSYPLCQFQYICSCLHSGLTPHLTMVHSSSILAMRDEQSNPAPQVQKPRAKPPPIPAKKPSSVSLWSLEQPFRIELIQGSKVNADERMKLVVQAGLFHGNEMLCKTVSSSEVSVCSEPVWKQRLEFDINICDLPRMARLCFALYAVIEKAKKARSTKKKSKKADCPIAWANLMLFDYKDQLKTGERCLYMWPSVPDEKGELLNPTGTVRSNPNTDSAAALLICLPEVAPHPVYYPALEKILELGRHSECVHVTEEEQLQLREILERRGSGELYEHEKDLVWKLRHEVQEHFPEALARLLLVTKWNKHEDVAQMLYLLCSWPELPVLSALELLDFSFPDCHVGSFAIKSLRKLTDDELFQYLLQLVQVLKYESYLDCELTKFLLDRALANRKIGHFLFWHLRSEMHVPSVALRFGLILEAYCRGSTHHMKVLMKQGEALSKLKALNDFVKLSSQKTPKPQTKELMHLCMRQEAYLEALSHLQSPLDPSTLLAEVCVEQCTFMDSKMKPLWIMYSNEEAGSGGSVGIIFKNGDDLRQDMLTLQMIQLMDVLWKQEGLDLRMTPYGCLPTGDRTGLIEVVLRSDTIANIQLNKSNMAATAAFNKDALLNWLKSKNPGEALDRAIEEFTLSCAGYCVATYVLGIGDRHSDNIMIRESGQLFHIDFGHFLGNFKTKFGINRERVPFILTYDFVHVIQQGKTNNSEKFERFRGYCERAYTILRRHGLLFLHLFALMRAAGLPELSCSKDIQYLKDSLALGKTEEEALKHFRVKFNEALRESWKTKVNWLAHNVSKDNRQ
Chain of PI3K-δ in RAJI cells (P27986 whole entry partner): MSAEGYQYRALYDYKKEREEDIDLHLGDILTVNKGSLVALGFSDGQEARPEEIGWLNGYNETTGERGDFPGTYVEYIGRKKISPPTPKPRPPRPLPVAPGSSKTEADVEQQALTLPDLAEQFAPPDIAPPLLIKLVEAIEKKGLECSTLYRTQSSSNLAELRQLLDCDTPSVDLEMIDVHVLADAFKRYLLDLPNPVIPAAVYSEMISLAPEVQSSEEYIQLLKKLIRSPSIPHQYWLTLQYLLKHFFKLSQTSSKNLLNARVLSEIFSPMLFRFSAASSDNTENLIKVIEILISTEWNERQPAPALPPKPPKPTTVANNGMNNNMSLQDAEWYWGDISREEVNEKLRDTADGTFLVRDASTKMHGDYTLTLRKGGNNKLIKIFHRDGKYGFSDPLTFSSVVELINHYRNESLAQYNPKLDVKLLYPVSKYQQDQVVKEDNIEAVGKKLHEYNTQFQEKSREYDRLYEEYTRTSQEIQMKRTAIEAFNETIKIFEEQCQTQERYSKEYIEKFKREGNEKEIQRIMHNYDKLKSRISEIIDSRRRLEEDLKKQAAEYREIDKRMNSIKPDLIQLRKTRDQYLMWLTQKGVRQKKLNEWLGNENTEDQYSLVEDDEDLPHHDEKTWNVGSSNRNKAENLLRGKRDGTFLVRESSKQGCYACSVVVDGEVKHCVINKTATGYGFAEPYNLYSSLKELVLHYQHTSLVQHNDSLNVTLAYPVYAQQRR

[6] = target: PI3K-γ in RAW264.7 macrophages (Mus musculus (Mouse), UniProt Q9JHG7); assay: Raw264.7 p110 γ assay (PI3K-γ selective cellular assay, C5a-stimulated phospho-AKT); type: cell-based; settings: for IC50: phospho-AKT, read-out: Raw264.7 p110 γ assay IC50
Chain of PI3K-γ in RAW264.7 macrophages (Q9JHG7 whole entry): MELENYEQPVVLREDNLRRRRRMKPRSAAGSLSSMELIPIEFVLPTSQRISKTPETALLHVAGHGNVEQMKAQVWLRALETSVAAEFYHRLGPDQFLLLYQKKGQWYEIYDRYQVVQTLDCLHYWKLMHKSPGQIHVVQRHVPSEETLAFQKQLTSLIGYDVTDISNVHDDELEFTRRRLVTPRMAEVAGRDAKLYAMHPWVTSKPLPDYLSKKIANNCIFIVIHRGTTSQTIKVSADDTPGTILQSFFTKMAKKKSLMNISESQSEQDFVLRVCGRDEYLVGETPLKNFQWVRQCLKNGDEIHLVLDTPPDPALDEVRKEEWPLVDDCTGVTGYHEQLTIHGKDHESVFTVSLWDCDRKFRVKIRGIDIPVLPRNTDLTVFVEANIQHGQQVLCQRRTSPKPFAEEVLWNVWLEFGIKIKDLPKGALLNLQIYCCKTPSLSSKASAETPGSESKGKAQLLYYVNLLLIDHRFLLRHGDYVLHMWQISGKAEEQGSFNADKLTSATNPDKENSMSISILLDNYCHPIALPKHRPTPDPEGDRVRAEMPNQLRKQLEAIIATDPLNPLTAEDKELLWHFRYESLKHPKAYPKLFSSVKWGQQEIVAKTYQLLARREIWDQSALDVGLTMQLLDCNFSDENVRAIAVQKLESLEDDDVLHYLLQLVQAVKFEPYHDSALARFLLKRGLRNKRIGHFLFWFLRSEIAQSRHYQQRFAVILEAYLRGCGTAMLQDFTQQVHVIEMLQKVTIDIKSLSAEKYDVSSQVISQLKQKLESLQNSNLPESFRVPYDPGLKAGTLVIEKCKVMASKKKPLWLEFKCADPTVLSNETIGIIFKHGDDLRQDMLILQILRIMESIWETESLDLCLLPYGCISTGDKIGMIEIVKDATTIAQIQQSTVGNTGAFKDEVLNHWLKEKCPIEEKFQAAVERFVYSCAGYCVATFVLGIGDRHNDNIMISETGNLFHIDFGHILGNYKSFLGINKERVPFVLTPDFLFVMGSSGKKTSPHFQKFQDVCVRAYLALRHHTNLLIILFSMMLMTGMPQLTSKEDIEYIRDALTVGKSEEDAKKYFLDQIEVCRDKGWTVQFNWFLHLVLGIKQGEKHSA

Chain of PI3K α (P42336 whole entry): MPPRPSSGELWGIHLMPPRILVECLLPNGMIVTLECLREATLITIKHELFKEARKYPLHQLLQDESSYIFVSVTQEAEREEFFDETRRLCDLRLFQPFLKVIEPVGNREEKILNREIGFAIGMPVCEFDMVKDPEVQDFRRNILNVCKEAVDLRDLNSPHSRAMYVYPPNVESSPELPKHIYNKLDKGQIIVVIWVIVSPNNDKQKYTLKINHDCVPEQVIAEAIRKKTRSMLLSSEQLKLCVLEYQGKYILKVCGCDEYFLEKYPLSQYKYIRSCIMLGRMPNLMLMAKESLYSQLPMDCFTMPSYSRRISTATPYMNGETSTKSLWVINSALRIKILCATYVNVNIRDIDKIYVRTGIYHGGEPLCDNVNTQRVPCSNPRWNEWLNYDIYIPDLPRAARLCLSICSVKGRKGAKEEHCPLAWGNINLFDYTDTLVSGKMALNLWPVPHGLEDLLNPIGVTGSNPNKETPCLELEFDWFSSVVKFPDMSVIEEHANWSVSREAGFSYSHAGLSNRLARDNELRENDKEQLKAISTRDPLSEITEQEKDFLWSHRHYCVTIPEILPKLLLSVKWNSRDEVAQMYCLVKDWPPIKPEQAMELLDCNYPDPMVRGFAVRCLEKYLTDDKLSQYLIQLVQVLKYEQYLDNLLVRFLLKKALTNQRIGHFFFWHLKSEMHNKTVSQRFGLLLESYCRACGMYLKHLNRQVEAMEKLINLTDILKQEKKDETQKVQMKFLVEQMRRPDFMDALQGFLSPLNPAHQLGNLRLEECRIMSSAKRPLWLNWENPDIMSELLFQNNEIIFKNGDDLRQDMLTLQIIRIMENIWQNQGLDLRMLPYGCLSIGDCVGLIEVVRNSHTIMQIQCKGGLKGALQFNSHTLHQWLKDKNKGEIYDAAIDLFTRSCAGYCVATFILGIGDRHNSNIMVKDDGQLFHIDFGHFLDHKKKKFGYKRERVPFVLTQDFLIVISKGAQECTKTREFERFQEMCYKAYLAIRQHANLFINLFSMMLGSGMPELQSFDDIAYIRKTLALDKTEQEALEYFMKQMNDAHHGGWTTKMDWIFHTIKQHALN
Chain of PI3K α (P27986 whole entry partner): as the sequence (P27986 whole entry partner) above
Chain of PI3K β (P42338 whole entry): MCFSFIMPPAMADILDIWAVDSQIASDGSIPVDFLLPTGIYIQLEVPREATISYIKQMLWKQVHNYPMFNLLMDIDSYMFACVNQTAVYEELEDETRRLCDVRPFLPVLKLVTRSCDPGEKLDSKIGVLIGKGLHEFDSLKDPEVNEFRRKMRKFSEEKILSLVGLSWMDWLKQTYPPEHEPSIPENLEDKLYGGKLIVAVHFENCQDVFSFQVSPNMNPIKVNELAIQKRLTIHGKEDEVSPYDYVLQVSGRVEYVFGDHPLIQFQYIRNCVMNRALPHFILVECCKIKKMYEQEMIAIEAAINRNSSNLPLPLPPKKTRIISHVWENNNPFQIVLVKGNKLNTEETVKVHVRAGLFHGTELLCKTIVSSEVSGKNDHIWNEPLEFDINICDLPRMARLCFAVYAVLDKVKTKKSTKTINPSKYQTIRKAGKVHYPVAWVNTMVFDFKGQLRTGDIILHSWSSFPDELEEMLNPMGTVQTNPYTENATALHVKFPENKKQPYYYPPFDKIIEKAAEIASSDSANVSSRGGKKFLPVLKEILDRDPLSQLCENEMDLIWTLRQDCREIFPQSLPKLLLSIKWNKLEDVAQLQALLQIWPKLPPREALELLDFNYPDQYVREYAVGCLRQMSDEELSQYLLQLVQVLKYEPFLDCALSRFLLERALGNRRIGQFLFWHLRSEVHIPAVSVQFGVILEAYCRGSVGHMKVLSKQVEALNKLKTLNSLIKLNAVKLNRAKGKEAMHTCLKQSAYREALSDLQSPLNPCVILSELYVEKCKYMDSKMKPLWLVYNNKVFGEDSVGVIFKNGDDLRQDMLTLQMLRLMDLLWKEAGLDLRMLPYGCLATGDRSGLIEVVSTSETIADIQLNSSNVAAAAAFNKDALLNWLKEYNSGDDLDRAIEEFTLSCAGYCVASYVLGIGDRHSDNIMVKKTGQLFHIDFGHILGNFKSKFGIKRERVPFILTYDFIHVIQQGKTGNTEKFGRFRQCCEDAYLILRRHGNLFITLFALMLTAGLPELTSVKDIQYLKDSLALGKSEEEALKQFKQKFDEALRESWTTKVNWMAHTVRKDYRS
Chain of PI3K β (P27986 whole entry partner): as the sequence (P27986 whole entry partner) above

| SMILES | IC50 [1] [nM] | IC50 [2] [nM] | IC50 [3] [nM] | PI3K δ/PI3K γ IC50 (selectivity) [3] | IC50 [4] [nM] | IC50 [5] [nM] | RAJIδ/Raw264.7 γ IC50 (selectivity) [6] | IC50 [6] [nM] |
| --- | --- | --- | --- | --- | --- | --- | --- | --- |
| C#Cc1cccc2nc([C@H](C)NC(=O)c3c(N)nn4cccnc34)n(-c3ccc(F)cc3)c(=O)c12 [Compound 50] | 5000 to 10000 | 5000 to 10000 | 1 to 100 | Y (Y = 50 to <850) | 1000 to 5000 | 1 to 100 | W (W = >1 to <10) | 1 to 50 |
| COc1ncc(C#Cc2cccc3cc([C@H](C)NC(=O)c4c(N)nn5cccnc45)n(-c4ccccc4)c(=O)c23)cn1 [Compound 18] | 5000 to 10000 | 5000 to 10000 | 100 to 500 | Y (Y = 50 to <850) | 5000 to 10000 | 100 to 500 | X (X = 10 to <50) | 1 to 50 |
| C[C@H](NC(=O)c1c(N)nn2cccnc12)c1cc2cccc(C#Cc3ccn(C)n3)c2c(=O)n1-c1ccccc1 [Compound 30] | 5000 to 10000 | 5000 to 10000 | 100 to 500 | Y (Y = 50 to <850) | 5000 to 10000 | 100 to 500 | Y (Y = 50 to <850) | 1 to 50 |
| C[C@H](NC(=O)c1c(N)nn2cccnc12)c1cc2cccc(C#CC3CC3)c2c(=O)n1-c1ccccc1 [Compound 9] | 1000 to 5000 | 1000 to 5000 | 100 to 500 | X (X = 10 to <50) | 1000 to 5000 | 100 to 500 | Y (Y = 50 to <850) | 1 to 50 |
| C[C@H](NC(=O)c1c(N)nn2cccnc12)c1cc2cccc(C#CC3CNC3)c2c(=O)n1-c1ccccc1 [Compound 74] | 5000 to 10000 | 5000 to 10000 | 500 to 1000 | W (key: V = 0.1 to 1; W = >1 to <10; X = 10 to <50; Y = 50 to <850) | 1000 to 5000 | 1000 to 10000 | W (key: V = 0.1 to 1; W = >1 to <10; X = 10 to <50; Y = 50 to <850) | 100 to 10000 |
| C[C@H](NC(=O)c1c(N)nn2cccnc12)c1cc2cccc(C#Cc3ccc(=O)n(C)c3)c2c(=O)n1-c1ccccc1 [Compound 20] | 5000 to 10000 | 5000 to 10000 | 1 to 100 | X (X = 10 to <50) | 1000 to 5000 | 100 to 500 | X (X = 10 to <50) | 1 to 50 |
| Cc1csc(C#Cc2cccc3cc([C@H](C)NC(=O)c4c(N)nn5cccnc45)n(-c4ccccc4)c(=O)c23)n1 [Compound 60] | 5000 to 10000 | 5000 to 10000 | 100 to 500 | X (X = 10 to <50) | 5000 to 10000 | 100 to 500 | Y (Y = 50 to <850) | 1 to 50 |
| Cc1nc(C#Cc2cccc3cc([C@H](C)NC(=O)c4c(N)nn5cccnc45)n(-c4ccccc4)c(=O)c23)cs1 [Compound 40] | 1000 to 5000 | 5000 to 10000 | 1 to 100 | Y (Y = 50 to <850) | 5000 to 10000 | 100 to 500 | Y (Y = 50 to <850) | 1 to 50 |
| Cc1ncccc1C#Cc1cccc2cc([C@H](C)NC(=O)c3c(N)nn4cccnc34)n(-c3ccccc3)c(=O)c12 [Compound 67] | 5000 to 10000 | 5000 to 10000 | 1000 to 5000 | W (W = >1 to <10) | 5000 to 10000 | 1000 to 10000 | X (X = 10 to <50) | 100 to 10000 |
| C[C@H](NC(=O)c1c(N)nn2cccnc12)c1cc2cccc(C#CC3CCOC3)c2c(=O)n1-c1ccccc1 (some centres unmarked) [Compound 84] | 5000 to 10000 | 5000 to 10000 | 1 to 100 | Y (Y = 50 to <850) | 5000 to 10000 | 100 to 500 | X (X = 10 to <50) | 1 to 50 |
| C/C=C/c1cccc2cc([C@H](C)NC(=O)c3c(N)nn4cccnc34)n(-c3ccccc3)c(=O)c12 [Compound 70] | 5000 to 10000 | 5000 to 10000 | 100 to 500 | X (key: V = 0.1 to 1; W = >1 to <10; X = 10 to <50; Y = 50 to <850) | 5000 to 10000 | 1 to 100 | X (X = 10 to <50) | 1 to 50 |
| COc1ccc(C#Cc2cccc3cc([C@H](C)NC(=O)c4c(N)nn5cccnc45)n(-c4ccccc4)c(=O)c23)cn1 [Compound 6] | 5000 to 10000 | 5000 to 10000 | 100 to 500 | Y (Y = 50 to <850) | 5000 to 10000 | 500 to 1000 | X (X = 10 to <50) | 1 to 50 |
| C[C@H](NC(=O)c1c(N)nn2cccnc12)c1cc2cccc(C#CCN3CCOCC3)c2c(=O)n1-c1ccccc1 [Compound 10] | 5000 to 10000 | 5000 to 10000 | 100 to 500 | X (X = 10 to <50) | 5000 to 10000 | 1000 to 10000 | X (X = 10 to <50) | 1 to 50 |
| C[C@H](NC(=O)c1c(N)nn2cccnc12)c1cc2cccc(C#CC=O)c2c(=O)n1-c1ccccc1 [Compound 36] | 1000 to 5000 | 1 to 500 | 1 to 100 | X (key: V = 0.1 to 1; W = >1 to <10; X = 10 to <50; Y = 50 to <850) | 1000 to 5000 | 100 to 500 | W (key: V = 0.1 to 1; W = >1 to <10; X = 10 to <50; Y = 50 to <850) | 100 to 10000 |

Other lines, results leading:

| IC50 [1] [nM] | IC50 [2] [nM] | IC50 [3] [nM] | PI3K δ/PI3K γ IC50 (selectivity) [3] | IC50 [4] [nM] | IC50 [5] [nM] | RAJIδ/Raw264.7 γ IC50 (selectivity) [6] | IC50 [6] [nM] | SMILES |
| --- | --- | --- | --- | --- | --- | --- | --- | --- |
| 5000 to 10000 | 5000 to 10000 | 500 to 1000 | X (X = 10 to <50) | 5000 to 10000 | 1000 to 10000 | Y (Y = 50 to <850) | 1 to 50 | Cc1ccncc1C#Cc1cccc2cc([C@H](C)NC(=O)c3c(N)nn4cccnc34)n(-c3ccccc3)c(=O)c12 [Compound 61] |
| 1000 to 5000 | 1000 to 5000 | 1000 to 5000 | W (W = >1 to <10) | 5000 to 10000 | 100 to 500 | W (W = >1 to <10) | 1 to 50 | C[C@H](NC(=O)c1c(N)nn2cccnc12)c1cc2cccc(C#Cc3cncn3C)c2c(=O)n1C1CC1 [Compound 23] |
| 5000 to 10000 | 5000 to 10000 | 500 to 1000 | X (X = 10 to <50) | 5000 to 10000 | 500 to 1000 | X (X = 10 to <50) | 50 to 100 | CCOC(C#Cc1cccc2cc([C@H](C)NC(=O)c3c(N)nn4cccnc34)n(-c3ccccc3)c(=O)c12)OCC [Compound 34] |
| 5000 to 10000 | 5000 to 10000 | 1 to 100 | Y (Y = 50 to <850) | 5000 to 10000 | 500 to 1000 | Y (Y = 50 to <850) | 1 to 50 | Cc1nc(C#Cc2cccc3nc([C@H](C)NC(=O)c4c(N)nn5cccnc45)n(-c4ccccc4)c(=O)c23)cs1 [Compound 63] |
| 5000 to 10000 | 1000 to 5000 | 1 to 100 | X (X = 10 to <50) | 500 to 1000 | 1 to 100 | X (X = 10 to <50) | 1 to 50 | CC#Cc1cccc2nc([C@H](C)NC(=O)c3c(N)nn4cccnc34)n(-c3ccccc3)c(=O)c12 [Compound 1] |
| 5000 to 10000 | 5000 to 10000 | 500 to 1000 | X (X = 10 to <50) | 5000 to 10000 | 1000 to 10000 | W (W = >1 to <10) | 100 to 10000 | C[C@H](NC(=O)c1c(N)nn2cccnc12)c1cc2cccc(C#CC(C)(C)N)c2c(=O)n1-c1ccccc1 [Compound 8] |
| 5000 to 10000 | 5000 to 10000 | 100 to 500 | Y (Y = 50 to <850) | 5000 to 10000 | 100 to 500 | X (X = 10 to <50) | 1 to 50 | Cc1ncc(C#Cc2cccc3cc([C@H](C)NC(=O)c4c(N)nn5cccnc45)n(-c4ccccc4)c(=O)c23)s1 [Compound 76] |
| 5000 to 10000 | 5000 to 10000 | 1 to 100 | X (X = 10 to <50) | 500 to 1000 | 100 to 500 | W (W = >1 to <10) | 1 to 50 | C[C@H](NC(=O)c1c(N)nn2cccnc12)c1cc2cccc(C#C[C@@H](C)O)c2c(=O)n1-c1ccccc1 [Compound 15] |
| 5000 to 10000 | 5000 to 10000 | 100 to 500 | X (X = 10 to <50) | 5000 to 10000 | 1 to 100 | Y (Y = 50 to <850) | 1 to 50 | C[C@H](NC(=O)c1c(N)nn2cccnc12)c1cc2cccc(C#CC3CCOCC3)c2c(=O)n1-c1ccccc1 [Compound 27] |
| 5000 to 10000 | 5000 to 10000 | 1000 to 5000 | W (W = >1 to <10) | 5000 to 10000 | 100 to 500 | X (X = 10 to <50) | 1 to 50 | COc1cc(C#Cc2cccc3cc([C@H](C)NC(=O)c4c(N)nn5cccnc45)n(-c4ccccc4)c(=O)c23)ccn1 [Compound 28] |
| 5000 to 10000 | 5000 to 10000 | 100 to 500 | X (X = 10 to <50) | 5000 to 10000 | 100 to 500 | X (X = 10 to <50) | 1 to 50 | Cc1scnc1C#Cc1cccc2cc([C@H](C)NC(=O)c3c(N)nn4cccnc34)n(-c3ccccc3)c(=O)c12 [Compound 78] |
